The target of one experiment is human SMG1 enzyme (Homo sapiens, UniProt Q96Q15). Briefly: Measurement of SMG1 kinase activity (ADP-Glo Kinase Assay). Particulars: purified human SMG1 enzyme 5 nM, Upf1 peptide substrate, ATP 4 μM; qAC50 synonymous with IC50; read-out: Test Example 1 ADP-Glo IC50. It is filed as biochemical. In short, it runs like this:
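ADP-Glo luminescence readout of ADP made by 5 nM human SMG1 acting on 8 μg/mL Upf1 peptide with 4 μM ATP for 60 min at room temperature, after a 15 min enzyme–compound preincubation (1% DMSO; pH 7.5 HEPES, MnCl2). Activity scaled between DMSO and no-enzyme wells; IC50 by four-parameter logistic regression.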
(In general: ADP-Glo first removes unused ATP, then detects ADP through luciferase.)

The subject of experiment [1] is Snhg1 transcript (NMD target gene) in EMT6 murine breast cancer cell line. The experiment in a line: Measurement of NMD inhibitory activity in cells (increase in Snhg1 transcript, real-time PCR). Also noted: species or system mouse. The conditions noted are these: Mus musculus, 6 hours treatment, concentration giving 1/2 of maximum Snhg1 fold change of positive control, read-out: Test Example 2 Cell-based Snhg1 EC50. In short, it runs like this: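 EMT6 cells treated with serially diluted compound (2% DMSO final) for 6 h; Snhg1 transcript quantified by real-time PCR (ΔΔCT, Tbp endogenous control, untreated wells set to 1). EC50 taken as concentration giving half the maximum fold change of a known NMD inhibitor positive control.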
(In qPCR the cycle at which signal appears reflects the starting amount.)

The test system of experiment [2] is Snhg1 transcript in tumor tissues of mice subcutaneously implanted with EMT6 murine breast cancer cell line. Briefly: Evaluation of NMD inhibitory activity in vivo (Snhg1 transcript in EMT6 tumor tissue after oral administration). The conditions noted are these: 6 hours after administration, BALB/c mice. As to the method:
The NMD inhibitory activity of a compound of the present invention or a pharmaceutically acceptable salt thereof in vivo can be measured, for example, by the method described below. Using mice subcutaneously implanted with EMT6 murine breast cancer cell line, tumor tissues 6 hours after oral administration of a test substance are excised, and the increase in Snhg1 transcript is quantified as an indicator of NMD inhibition in the tumor, in the same manner as in the in vitro method.
In this test, NMD inhibitory activity in tumor tissues was evaluated when a test substance was orally administered to mice subcutaneously implanted with EMT6 murine breast cancer cell line. As an indicator of NMD inhibitory activity, the increase in the transcript of Snhg1, an NMD target gene, was quantified. First, BALB/c mice were subcutaneously implanted with EMT6 cells (ATCC), and engraftment was confirmed 7 days later. Six hours after administration of the test substance, mice were euthanized, and the collected tumor tissues were cryopreserved. RNA was extracted from the tumor tissues using the illustra RNAspin Mini RNA Isolation kit (GE Healthcare Life Sciences). After synthesizing cDNA using the High-Capacity cDNA Reverse Transcription Kits (Applied Biosystems, 4368813), the cDNA was mixed with PrimeTime Gene Expression Master Mix (Integrated DNA Technologies) and various probes, and gene expression was quantified by QuantStudio 6 Flex (Thermo Fisher Scientific Inc.). For the probe for the Snhg1 gene, which is an NMD target, Mm.PT.58.44039547 (FAM) (Integrated DNA Technologies) was used, and for the probe for the Gapdh gene, which is an endogenous control, Mm99999915_g2 (VIC-PL) (Applied Biosystems) was used. The relative quantification of Snhg1 transcripts in each sample was calculated by the ΔΔCT method using Gapdh as an endogenous control, and the expression level of Snhg1 in each test substance administration group was calculated by setting the expression level of the Vehicle group (0.5% methylcellulose administration group) to 1.

Chain of human SMG1 enzyme (Q96Q15 whole entry): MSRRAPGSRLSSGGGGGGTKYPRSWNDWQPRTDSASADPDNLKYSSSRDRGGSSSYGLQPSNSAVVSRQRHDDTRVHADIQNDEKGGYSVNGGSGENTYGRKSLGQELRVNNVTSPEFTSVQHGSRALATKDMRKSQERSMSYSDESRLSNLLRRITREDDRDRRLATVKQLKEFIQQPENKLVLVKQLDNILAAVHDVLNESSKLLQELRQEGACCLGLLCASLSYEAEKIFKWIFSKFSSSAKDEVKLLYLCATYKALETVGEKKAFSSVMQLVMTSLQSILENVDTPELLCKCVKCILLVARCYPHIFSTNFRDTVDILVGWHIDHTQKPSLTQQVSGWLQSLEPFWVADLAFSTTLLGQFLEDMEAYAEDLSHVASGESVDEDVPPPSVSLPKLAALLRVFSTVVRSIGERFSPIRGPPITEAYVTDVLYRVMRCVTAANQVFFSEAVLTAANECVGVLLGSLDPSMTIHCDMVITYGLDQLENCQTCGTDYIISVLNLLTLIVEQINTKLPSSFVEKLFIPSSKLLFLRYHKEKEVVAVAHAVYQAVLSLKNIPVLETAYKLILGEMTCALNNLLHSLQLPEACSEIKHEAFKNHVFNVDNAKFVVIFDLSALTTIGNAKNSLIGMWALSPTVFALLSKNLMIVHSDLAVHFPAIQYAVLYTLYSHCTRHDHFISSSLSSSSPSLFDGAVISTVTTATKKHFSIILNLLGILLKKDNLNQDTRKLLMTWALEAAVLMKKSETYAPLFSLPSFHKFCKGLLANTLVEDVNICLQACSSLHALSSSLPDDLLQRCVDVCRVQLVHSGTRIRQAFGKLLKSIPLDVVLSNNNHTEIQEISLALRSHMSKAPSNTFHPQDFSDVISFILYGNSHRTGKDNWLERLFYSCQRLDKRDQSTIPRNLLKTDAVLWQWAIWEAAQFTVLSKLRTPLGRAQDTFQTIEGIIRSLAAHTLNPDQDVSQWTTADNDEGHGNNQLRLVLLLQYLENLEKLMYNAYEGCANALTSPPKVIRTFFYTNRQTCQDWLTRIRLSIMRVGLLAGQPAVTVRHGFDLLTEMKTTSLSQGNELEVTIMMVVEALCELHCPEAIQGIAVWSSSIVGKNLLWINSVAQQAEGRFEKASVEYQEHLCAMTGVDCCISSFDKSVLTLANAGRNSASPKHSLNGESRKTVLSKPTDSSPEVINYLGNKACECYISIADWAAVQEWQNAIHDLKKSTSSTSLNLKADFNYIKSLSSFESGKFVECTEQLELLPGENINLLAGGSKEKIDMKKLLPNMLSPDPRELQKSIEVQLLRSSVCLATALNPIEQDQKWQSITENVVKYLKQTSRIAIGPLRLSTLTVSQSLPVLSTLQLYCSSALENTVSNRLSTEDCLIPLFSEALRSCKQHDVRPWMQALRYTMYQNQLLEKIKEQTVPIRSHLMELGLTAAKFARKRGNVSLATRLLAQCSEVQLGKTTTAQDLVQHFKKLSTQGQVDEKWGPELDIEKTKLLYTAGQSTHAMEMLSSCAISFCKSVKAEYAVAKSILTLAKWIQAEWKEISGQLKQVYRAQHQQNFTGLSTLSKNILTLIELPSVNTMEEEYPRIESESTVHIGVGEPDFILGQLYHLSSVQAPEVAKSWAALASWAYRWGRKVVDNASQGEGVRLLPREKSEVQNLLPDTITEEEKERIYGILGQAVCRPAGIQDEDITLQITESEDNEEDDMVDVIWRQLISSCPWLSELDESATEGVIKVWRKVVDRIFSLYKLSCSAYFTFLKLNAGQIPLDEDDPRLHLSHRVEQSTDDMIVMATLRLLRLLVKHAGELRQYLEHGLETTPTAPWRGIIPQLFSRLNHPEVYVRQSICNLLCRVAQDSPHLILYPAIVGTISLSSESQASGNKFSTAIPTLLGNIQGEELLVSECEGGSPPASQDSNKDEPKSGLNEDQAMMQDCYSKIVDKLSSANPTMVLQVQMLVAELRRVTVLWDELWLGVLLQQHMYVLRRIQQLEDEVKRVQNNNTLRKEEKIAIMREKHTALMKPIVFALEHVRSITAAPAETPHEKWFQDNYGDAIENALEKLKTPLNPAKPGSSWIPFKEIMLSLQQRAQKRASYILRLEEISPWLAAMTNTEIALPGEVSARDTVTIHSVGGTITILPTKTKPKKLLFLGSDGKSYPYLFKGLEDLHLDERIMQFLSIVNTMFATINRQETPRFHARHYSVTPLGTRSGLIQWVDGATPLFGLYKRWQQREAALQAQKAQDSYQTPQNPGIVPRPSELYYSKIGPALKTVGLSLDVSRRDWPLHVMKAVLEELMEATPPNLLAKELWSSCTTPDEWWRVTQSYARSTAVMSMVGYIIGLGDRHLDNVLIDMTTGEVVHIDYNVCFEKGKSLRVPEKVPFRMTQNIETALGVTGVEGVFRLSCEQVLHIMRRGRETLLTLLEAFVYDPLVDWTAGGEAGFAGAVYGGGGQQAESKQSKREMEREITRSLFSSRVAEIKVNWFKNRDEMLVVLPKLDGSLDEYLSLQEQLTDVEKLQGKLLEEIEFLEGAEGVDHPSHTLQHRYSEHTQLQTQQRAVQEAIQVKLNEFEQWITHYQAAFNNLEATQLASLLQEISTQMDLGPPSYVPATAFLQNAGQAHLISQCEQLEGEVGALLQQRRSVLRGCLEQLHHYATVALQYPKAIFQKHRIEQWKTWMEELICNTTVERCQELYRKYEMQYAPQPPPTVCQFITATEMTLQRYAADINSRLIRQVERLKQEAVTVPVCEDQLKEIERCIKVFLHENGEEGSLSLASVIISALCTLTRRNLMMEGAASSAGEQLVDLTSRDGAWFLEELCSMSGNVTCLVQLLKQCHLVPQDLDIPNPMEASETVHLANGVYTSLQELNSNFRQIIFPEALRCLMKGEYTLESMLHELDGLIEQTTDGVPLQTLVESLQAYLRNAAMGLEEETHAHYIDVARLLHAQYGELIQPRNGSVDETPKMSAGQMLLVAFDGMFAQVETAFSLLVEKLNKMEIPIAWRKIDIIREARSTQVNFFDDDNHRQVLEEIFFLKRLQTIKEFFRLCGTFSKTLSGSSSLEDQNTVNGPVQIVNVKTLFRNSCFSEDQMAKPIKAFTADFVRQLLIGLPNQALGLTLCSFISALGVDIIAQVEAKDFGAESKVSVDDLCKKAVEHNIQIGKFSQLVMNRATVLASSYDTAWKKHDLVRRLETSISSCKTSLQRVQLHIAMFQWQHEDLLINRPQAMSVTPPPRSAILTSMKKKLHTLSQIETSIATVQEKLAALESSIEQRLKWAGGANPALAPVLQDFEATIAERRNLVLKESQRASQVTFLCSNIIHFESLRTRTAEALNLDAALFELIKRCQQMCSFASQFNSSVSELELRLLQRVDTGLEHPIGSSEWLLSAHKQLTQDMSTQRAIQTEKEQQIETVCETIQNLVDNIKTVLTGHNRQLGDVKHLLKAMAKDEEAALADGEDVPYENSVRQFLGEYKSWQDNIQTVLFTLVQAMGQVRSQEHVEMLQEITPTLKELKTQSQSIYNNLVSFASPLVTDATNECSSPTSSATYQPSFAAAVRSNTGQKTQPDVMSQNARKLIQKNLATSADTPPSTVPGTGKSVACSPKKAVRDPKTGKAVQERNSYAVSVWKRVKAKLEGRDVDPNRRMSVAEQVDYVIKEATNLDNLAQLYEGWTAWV

One may read the IC50 as the concentration needed to halve the response being measured. As usually defined, the EC50 is the concentration that produces a half-maximal response. As to `CS(=O)(=O)O.Cc1nccc2[nH]c(=O)c(-c3nc4c(N5CC[C@H]5C)nc(Cl)cc4[nH]3)cc12` [Example 123, 3-{6-chloro-4-[(2R)-2-methylazetidin-1-yl]-1H-imidazo[4,5-c]pyridin-2-yl}-5-methyl-1,6-naphthyridin-2(1H)-one methanesulfonate], the IC50 on human SMG1 enzyme worked out at 1.6 nM. In experiment [1], the EC50 worked out at 46 nM. The compound further displayed a Snhg1 fold change in experiment [2] (30 mg/kg oral) of 4.4.
Turning to `COc1cccc(F)c1-c1nccc2[nH]c(=O)c(-c3nc4cnc(Cl)cc4[nH]3)cc12` [Example 35, 3-(6-chloro-1H-imidazo[4,5-c]pyridin-2-y1)-5-(2-fluoro-6-methoxyphenyl)-1,6-naphthyridin-2(1H)-one], on human SMG1 enzyme, the 50% inhibitory concentration (IC50) came to 1.4 nM. The EC50 in experiment [1] was 40 nM. The Snhg1 fold change in experiment [2] (10 mg/kg oral) worked out at 4.6.
With `COc1ncc(-c2nccc3[nH]c(=O)c(-c4nc5c(NCC(F)F)nc(Cl)cc5[nH]4)cc23)c(OC)n1` [Example 72, 3-(6-chloro-4-[(2,2-difluoroethyl)amino]-1H-imidazo[4,5-c]pyridin-2-yl)-5-(2,4-dimethoxypyrimidin-5-yl)-1,6-naphthyridin-2(1H)-one], on human SMG1 enzyme, the half-inhibitory concentration (IC50) was found to be 0.81 nM. The EC50 in experiment [1] worked out at 4.5 nM. Also, in experiment [2] (30 mg/kg oral), the Snhg1 fold change was 4.3.
As to `CS(=O)(=O)O.Cc1nccc2[nH]c(=O)c(-c3nc4c(N5CCOC[C@H]5C)nc(Cl)cc4[nH]3)cc12` [Example 124, 3-{6-chloro-4-[(3R)-3-methylmorpholin-4-yl]-1H-imidazo[4,5-c]pyridin-2-yl}-5-methyl-1,6-naphthyridin-2(1H)-one methanesulfonate], the half-maximal inhibitory concentration (IC50) on human SMG1 enzyme amounted to 3.2 nM. In experiment [1], the EC50 came out at 55 nM. For the same compound, in experiment [2] (10 mg/kg oral), the Snhg1 fold change is 4.6.
In the case of `COc1cc(OC)c(-c2nccc3[nH]c(=O)c(-c4nc5c(C)nc(Cl)cc5[nH]4)cc23)cn1.CS(=O)(=O)O` [Example 144, 3-(6-chloro-4-methyl-1H-imidazo[4,5-c]pyridin-2-yl)-5-(4,6-dimethoxypyridin-3-yl)-1,6-naphthyridin-2(1H)-one methanesulfonate], on human SMG1 enzyme, the IC50 stood at 0.95 nM. The 50% effective concentration (EC50) in experiment [1] is 19 nM. This compound displayed a Snhg1 fold change in experiment [2] (30 mg/kg oral) of 4.8.
Take `CS(=O)(=O)O.[2H]C([2H])([2H])Oc1cccc(F)c1-c1nccc2[nH]c(=O)c(-c3nc4c(CC)nc(Cl)cc4[nH]3)cc12` [Example 136, 3-(6-chloro-4-ethyl-1H-imidazo[4,5-c]pyridin-2-yl)-5-{2-fluoro-6-[(2H3)methyloxy]phenyl}-1,6-naphthyridin-2(1H)-one methanesulfonate]: the half-inhibitory concentration (IC50) at human SMG1 enzyme was 0.63 nM. In experiment [1], the half-maximal effective concentration (EC50) amounted to 5.3 nM. Besides, the Snhg1 fold change in experiment [2] (10 mg/kg oral) amounted to 4.8.
On the same counts, the results for `CCc1nccc2[nH]c(=O)c(-c3nc4c(C5CCOCC5)nc(Cl)cc4[nH]3)cc12.CS(=O)(=O)O` [Example 127, 3-[6-chloro-4-(tetrahydro-2H-pyran-4-yl)-1H-imidazo[4,5-c]pyridin-2-yl]-5-ethyl-1,6-naphthyridin-2(1H)-one methanesulfonate] are 0.96 nM, 34 nM and 6.2.
In the same order, the values of `CS(=O)(=O)O.Cc1nccc2[nH]c(=O)c(-c3nc4c(C5CCOCC5)nc(Cl)cc4[nH]3)cc12` [Example 125, 3-[6-chloro-4-(tetrahydro-2H-pyran-4-yl)-1H-imidazo[4,5-c]pyridin-2-yl]-5-methyl-1,6-naphthyridin-2(1H)-one methanesulfonate] are 0.72 nM, 23 nM and 6.5.
On the same counts, the results for `CCc1nc(Cl)cc2[nH]c(-c3cc4c(-c5c(C6CC6)nn(C(F)F)c5C)nccc4[nH]c3=O)nc12` [Example 92, 3-(6-chloro-4-ethyl-1H-imidazo[4,5-c]pyridin-2-yl)-5-[3-cyclopropyl-1-(difluoromethyl)-5-methyl-1H-pyrazol-4-yl]-1,6-naphthyridin-2(1H)-one] are 1.9 nM, 20 nM and 6.5.
In the case of `Cc1nc(Cl)cc2[nH]c(-c3cc4c(-c5ccccc5Cl)nccc4[nH]c3=O)nc12` [Example 29, 3-(6-chloro-4-methyl-1H-imidazo[4,5-c]pyridin-2-y1)-5-(2-chlorophenyl)-1,6-naphthyridin-2(1H)-one], on human SMG1 enzyme, the IC50 was 2 nM. For the same compound, the EC50 in experiment [1] came to 56 nM. In experiment [2] (30 mg/kg oral), this compound registered a Snhg1 fold change of 4.6.
With `COc1cc(C2CC2)ncc1-c1nccc2[nH]c(=O)c(-c3nc4c(C)nc(Cl)cc4[nH]3)cc12.CS(=O)(=O)O` [Example 140, 3-(6-chloro-4-methyl-1H-imidazo[4,5-c]pyridin-2-yl)-5-(6-cyclopropyl-4-methoxypyridin-3-yl)-1,6-naphthyridin-2(1H)-one methanesulfonate], the IC50 on human SMG1 enzyme was determined as 1 nM. Moreover, in experiment [1], the EC50 was found to be 8.8 nM. Further, in experiment [2] (10 mg/kg oral), the Snhg1 fold change is reported as 6.3.
In the same order, the values of `[2H]C([2H])([2H])Oc1ccccc1-c1nccc2[nH]c(=O)c(-c3nc4c(C)nc(Cl)cc4[nH]3)cc12` [Example 26, 3-(6-chloro-4-methyl-1H-imidazo[4,5-c]pyridin-2-yl)-5-{2-[(^2H3)methyloxy]phenyl}-1,6-naphthyridin-2(1H)-one] are 0.99 nM, 28 nM and 12.
For `CCc1nc(Cl)cc2[nH]c(-c3cc4c(-c5ccc(C)nc5OC)nccc4[nH]c3=O)nc12` [Example 68, 3-(6-chloro-4-ethyl-1H-imidazo[4,5-c]pyridin-2-yl)-5-(2-methoxy-6-methylpyridin-3-yl)-1,6-naphthyridin-2(1H)-one], on human SMG1 enzyme, the IC50 was 0.62 nM. Further, the half-maximal effective concentration (EC50) in experiment [1] is 10 nM. The same compound displayed a Snhg1 fold change in experiment [2] (30 mg/kg oral) of 8.3.
Regarding `O=c1[nH]c2ccnc(-c3ccccc3Cl)c2cc1-c1nc2cnc(Cl)cc2[nH]1` [Example 28, 3-(6-chloro-1H-imidazo[4,5-c]pyridin-2-y1)-5-(2-chlorophenyl)-1,6-naphthyridin-2(1H)-one], the IC50 on human SMG1 enzyme was found to be 2 nM. The half-maximal effective concentration (EC50) in experiment [1] was found to be 78 nM. This compound also returned a Snhg1 fold change in experiment [2] (25 mg/kg oral) of 8.8.
`Cc1nc(Cl)cc2[nH]c(-c3cc4c(-c5c(C6CC6)nn(C(F)F)c5C)nccc4[nH]c3=O)nc12` [Example 91, 3-(6-chloro-4-methyl-1H-imidazo[4,5-c]pyridin-2-yl)-5-[3-cyclopropyl-1-(difluoromethyl)-5-methyl-1H-pyrazol-4-yl]-1,6-naphthyridin-2(1H)-one]: the IC50 at human SMG1 enzyme was 1.8 nM. Besides, the concentration giving a half-maximal response (EC50) in experiment [1] was determined as 34 nM. In experiment [2] (10 mg/kg oral), this compound yielded a Snhg1 fold change of 5.9.
In the same order, the values of `CCc1nc(Cl)cc2[nH]c(-c3cc4c(-c5cnc(C(F)F)cc5OC)nccc4[nH]c3=O)nc12.CS(=O)(=O)O` [Example 141, 3-(6-chloro-4-ethyl-1H-imidazo[4,5-c]pyridin-2-yl)-5-[6-(difluoromethyl)-4-methoxypyridin-3-yl]-1,6-naphthyridin-2(1H)-one methanesulfonate] are 0.37 nM, 3.1 nM and 8.4.
In the same order, the values of `CCc1nc(Cl)cc2[nH]c(-c3cc4c(-c5c(C)nn(C(F)F)c5C)nccc4[nH]c3=O)nc12.CS(=O)(=O)O` [Example 148, 3-(6-chloro-4-ethyl-1H-imidazo[4,5-c]pyridin-2-yl)-5-[1-(difluoromethyl)-3,5-dimethyl-1H-pyrazol-4-yl]-1,6-naphthyridin-2(1H)-one methanesulfonate] are 0.73 nM, 12 nM and 5.8.
On the same counts, the results for `CCc1nc(Cl)cc2[nH]c(-c3cc4c(-c5cnc(C(F)(F)F)cc5OC)nccc4[nH]c3=O)nc12.CS(=O)(=O)O` [Example 145, 3-(6-chloro-4-ethyl-1H-imidazo[4,5-c]pyridin-2-yl)-5-[4-methoxy-6-(trifluoromethyl)pyridin-3-yl]-1,6-naphthyridin-2(1H)-one methanesulfonate] are 1.2 nM, 3.1 nM and 8.9.
